Measured values: publication PMC4099110, “Synthesis and Evaluation of Novel Pyrroles and Pyrrolopyrimidines as Anti-Hyperglycemic Agents” (BioMed Research International, 2014)
Several values for one entry are separate records, joined by “and”; a condition that tells them apart may be missing. Identical values can stand only once. Blank lines part the entries; values can stand above or below the molecule they belong to.

Assays:
Male Wistar rats = test: Sucrose-Loaded Model (SLM), blood glucose AUC; type: in vivo, rat; details: oral gavage, sucrose load 10 gm/kg, mean AUC of blood glucose 30-120 min, dose equivalent to Glimepiride 4 mg/kg by M.wt, vs untreated normal control
Experimental: The complete course of the experiment was conducted using male Wistar albino rats (200–250 g), reared and maintained in the animal house of the institution and provided free access to pelleted food and water ad libitum. The rats were maintained in a controlled environment (12 h light and dark cycle) for about a week for acclimatization. The protocol of the study was approved by the animal ethics committee of the Faculty of Pharmacy, Helwan University (10-01-2012). The study was conducted in accordance with the EC, directive 86/609/EEC for animal experiments.
Glimepiride (Amaryl) was used as a standard antidiabetic (4 mg/kg) in 1% gum acacia and administered orally. Equivalent doses of all derivatives were calculated according to their molecular weight [M·wt].
Male Wistar rats were fasted overnight. Blood was collected initially and then the compounds were given to corresponding groups consisting of six rats each by oral gavage. A sucrose load of (10 gm/kg) body weight was given to each rat after half an hour posttest treatment. Blood was collected in 30, 60, 90, and 120 min after sucrose load. The percentages (%) fallen in blood glucose level were calculated according to the AUC method.
Data were represented as mean area under curve (AUC) ± SD. Significant differences between groups was tested using GraphPad InStat (Graph software Inc., V 3.05, Ralph Stahlman, Purdue University). Appropriate graphs were plotted using Microsoft Excel 2007. P value less than 0.05 was considered statistically significant.

male Wistar albino rats = test: Streptozotocin (STZ) model of diabetes, blood glucose AUC; type: in vivo, rat; details: for Potency of antihyperglycemic derivatives compared to Amaryl: decrease in blood glucose relative to Amaryl = 100%, model not stated
Experimental: The complete course of the experiment was conducted using male Wistar albino rats (200-250 g), reared and maintained in the animal house of the institution and provided free access to pelleted food and water ad libitum. The rats were maintained in a controlled environment (12 h light and dark cycle) for about a week for acclimatization. The protocol of the study was approved by the animal ethics committee of the Faculty of Pharmacy, […] University (10-01-2012). The study was conducted in accordance with the EC, directive 86/609/EEC for animal experiments. […] Equivalent doses of all derivatives were calculated according to their molecular weight [M·wt]. Diabetes was induced in overnight fasted rats with a single intraperitoneal injection of streptozotocin (STZ) (Sigma-Aldrich, Co., St. Louis, USA. Catalog number: 1001062761) in a dose of 65 mg/kg. STZ was freshly dissolved in ice cold citrate buffer (0.01 M, pH 4.5) prior to injection. […] Group 2, diabetic + Glimepiride ([…]) (4 mg/kg), served as a reference antidiabetic drug. Groups (3-14) were given the various pyrrole derivatives ([…], b, f, and VIIIf, a, resp.). The treated groups administered the […] and different derivatives orally. For each group, blood glucose was estimated at zero, one, two, four, and six hours after oral administration of derivatives using glucometer (Gluco Dr Super Sensor, AllMedicus Co., Ltd., Anyang, Gyeonggi, Korea). Data were represented as mean area under curve (AUC) ± SD. Significant differences between groups was tested using GraphPad InStat (Graph software Inc., V 3.05, Ralph […], Purdue University). Appropriate graphs were plotted using Microsoft Excel 2007.

[1] = In vivo acute toxicity study, serum liver and kidney markers; set-up: species or system rat; details: for ALP / ALT / AST / Creatinine: rat serum; for levels of sera ALT, AST, ALP, and creatinine versus control untreated group: rats
Experimental: Alanine aminotransferase (ALT) and aspartate aminotransferase (AST) activities in serum were measured according to the Reitman-Frankel calorimetric transaminase procedure, whereas alkaline phosphatase (ALP) was assayed by the kinetic enzymatic method by measuring the rate of hydrolysis of p-nitrophenyl phosphate by ALP according to Henry; all were measured as indicators of hepatic injury. Serum creatinine levels were assayed as an indicator for renal injury in the samples by a calorimetric method, using commercial diagnostic kits (Diamond Diagnostics, Egypt).

[2] = as above; details: rat
[3] = oral, STZ 65 mg/kg i.p. diabetic rats, mean AUC of blood glucose 0-6 h, dose equivalent to Glimepiride 4 mg/kg by M.wt, vs diabetic control

SMILES: Cc1c(-n2cc(-c3ccccc3)c(C#N)c2N)c(=O)n(-c2ccccc2)n1C [Ie, 2-Amino-1-(1,5-dimethyl-3-oxo-2-phenyl-2,3-dihydro-1H -pyrazol-4-yl)-4-phenyl-1H -pyrrole-3-carbonitrile]
% reduction in blood glucose compared to control, SLM (Male Wistar rats): 16.7% and 16.7 ^ a % | Potency of antihyperglycemic derivatives compared to Amaryl (male Wistar albino rats): 97% and 96.99% | % reduction in blood glucose compared to control, STZ (male Wistar albino rats; [3]): 29.5% and 29.5 ^ a % | ALP [1]: 73.9 ± 13.2 U/L | ALT [1]: 20.5 ± 3.1 U/L | AST [1]: 62.7 ± 9.7 U/L | Creatinine [1]: 0.77 ± 0.14 mg/dL | levels of sera ALT, AST, ALP, and creatinine versus control untreated group [1]: not significantly changed | death or toxicity symptoms [2]: did not die or show any toxicity symptoms

SMILES: N#Cc1c(-c2ccccc2)c(-c2ccccc2)n(Cc2ccccc2)c1N [Ia]
% reduction in blood glucose compared to control, SLM (Male Wistar rats): 17.4% and 17.4 ^ a % | Potency of antihyperglycemic derivatives compared to Amaryl (male Wistar albino rats): 109.4% and 109.43% | % reduction in blood glucose compared to control, STZ (male Wistar albino rats; [3]): 33.3% and 33.3 ^ a % | ALP [1]: 68.5 ± 12.3 U/L | ALT [1]: 17.9 ± 2.7 U/L | AST [1]: 69.4 ± 9.5 U/L | Creatinine [1]: 0.8 ± 0.16 mg/dL | levels of sera ALT, AST, ALP, and creatinine versus control untreated group [1]: not significantly changed | death or toxicity symptoms [2]: did not die or show any toxicity symptoms

melting point: 185 to 188 °C
SMILES: Cc1nc(NN)c2c(-c3ccccc3)c(-c3ccccc3)n(-c3c(C)n(C)n(-c4ccccc4)c3=O)c2n1 [Vg, 4-(4-Hydrazinyl-2-methyl-5,6-diphenyl-7H-pyrrolo[2,3-d]pyrimidin-7-yl)-1,5-dimethyl-2-phenyl-1H-pyrazol-3(2H)-one]
Potency of antihyperglycemic derivatives compared to Amaryl (male Wistar albino rats): 36.19%

melting point: 158 to 160 °C
SMILES: Cc1nc(Cl)c2c(-c3ccccc3)c(-c3ccccc3)n(-c3c(C)n(C)n(-c4ccccc4)c3=O)c2n1 [IVg, 4-(4-Chloro-2-methyl-5,6-diphenyl-7H-pyrrolo[2,3-d]pyrimidin-7-yl)-1,5-dimethyl-2-phenyl-1H-pyrazol-3(2H)-one]
% reduction in blood glucose compared to control, SLM (Male Wistar rats): 13 ^ a % | % reduction in blood glucose compared to control, STZ (male Wistar albino rats; [3]): 11.2 ^ a %

SMILES: CCC1=C(C)CN(C(=O)NCCc2ccc(S(=O)(=O)NC(=O)N[C@H]3CC[C@H](C)CC3)cc2)C1=O [Amaryl, Glimepiride, reference compound]
inhibition in vivo at 4 mg/kg (Male Wistar rats; Rattus norvegicus, 2 h, read-out: % reduction in blood glucose compared to control, SLM): 27.7% | inhibition in vivo at 4 mg/kg (male Wistar albino rats; Rattus norvegicus, oral, STZ 65 mg/kg i.p. diabetic rats, mean AUC of blood glucose 0-6 h, dose equivalent to Glimepiride 4 mg/kg by M.wt, vs diabetic control, read-out: % reduction in blood glucose compared to control, STZ): 30.4% | Potency of antihyperglycemic derivatives compared to Amaryl (male Wistar albino rats): 100%

melting point: 90 to 95 °C
SMILES: Nc1nc(=S)[nH]c2c1c(-c1ccccc1)c(-c1ccccc1)n2-c1ccc(Cl)c(Cl)c1 [IIIi, 4-Amino-7-(3,4-dichlorophenyl)-5,6-diphenyl-1H-pyrrolo[2,3-d] pyrimidine-2(7H)-thione]
